Data taken from patent US20030224942A1, “Alkylamino-1,3,5-triazines, processes for their preparation and their use as herbicides and plant growth regulators” (priority 2001, published 2003).

How the values were obtained:
[1] = system: Chenopodium spp., Papaver spp., Polygonum spp., Veronica spp. or Viola spp.; experiment: Post-emergence effect on weeds (greenhouse pot test, visual scoring); type: in vivo, monocotyledonous and dicotyledonous weeds; settings: treated at three-leaf stage; visual scoring after about 3 to 4 weeks; application rate of 0.5 kg and less of active substance per hectare
[2] = system: Cyperus spp., Echinochloa spp., Digitaria spp., Sagitaria spp. and Scirpus spp.; experiment: Action on harmful plants in rice (paddy rice conditions, visual scoring); type: in vivo, typical rice weeds (gramineous and broad-leaved); settings: applied into the dammed water, visual scoring about three weeks after application
Description: Transplanted and sown rice and also typical rice weeds (gramineous and broad-leaved) are cultivated in closed plastic pots in a greenhouse to the three-leaf stage (Echinochloa crus-galli 1.5-leaf) under paddy rice conditions (dammed height of water: 2-3 cm). This is followed by treatment with the compounds according to the invention. […] After this treatment, the test plants are set up in a greenhouse under optimum growth conditions and are maintained in this way throughout the test period.

Compound	herbicidal activity post-emergence against harmful plants [1]	herbicidal activity against harmful plants which are typical for rice crops [2]
CC#Cc1ccc(CNc2nc(N)nc(CC)n2)cc1 [Product P6.1583]	very good herbicidal activity	very good herbicidal activity
CC(F)C#Cc1cc(C(C)Nc2nc(N)nc(C(C)(C)F)n2)ccc1F (centres unmarked) [Product P17.764]	very good herbicidal activity	very good herbicidal activity
CC(F)c1nc(N)nc(NCc2ccc(F)c(C(F)=C(F)F)c2)n1 (centres unmarked) [Product P21.5]	very good herbicidal activity	very good herbicidal activity
CCC(F)c1nc(N)nc(NCc2ccc(C3CC3)cc2)n1 (centres unmarked) [Product P26.1604]	very good herbicidal activity	very good herbicidal activity
C#Cc1ccc(C(Nc2nc(C)nc(N)n2)C2CC2)cc1 (centres unmarked) [Product P4.1580]	very good herbicidal activity	very good herbicidal activity
C#Cc1cccc(CNc2nc(C)nc(N)n2)c1 [Product P1.1579]	very good herbicidal activity	very good herbicidal activity
CCc1nc(N)nc(NCc2ccc(C3CC3)cc2)n1 [Product P6.1604]	very good herbicidal activity	very good herbicidal activity
CC#Cc1c(F)cc(CNc2nc(N)nc(C(C)(C)F)n2)cc1F [Product P16.428]	very good herbicidal activity	very good herbicidal activity
Cc1nc(N)nc(NC(c2ccc(C(F)=C(F)F)cc2)C2CC2)n1 (centres unmarked) [Product P4.1568]	very good herbicidal activity	very good herbicidal activity
C#Cc1ccc(C(C)Nc2nc(N)nc(C(C)C)n2)cc1C (centres unmarked) [Product P12.335]	very good herbicidal activity	very good herbicidal activity
CC#Cc1ccc(C(C)Nc2nc(N)nc(C(C)(C)F)n2)cc1 (centres unmarked) [Product P17.1583]	very good herbicidal activity	very good herbicidal activity
C#Cc1cccc(C(Nc2nc(N)nc(C(C)C)n2)C2CC2)c1 (centres unmarked) [Product P14.1579]	very good herbicidal activity	very good herbicidal activity
CC#Cc1cc(C(C)Nc2nc(N)nc(C(C)(C)F)n2)ccc1F (centres unmarked) [Product P17.384]	very good herbicidal activity	very good herbicidal activity
C#Cc1cc(C#C)cc(C(C)Nc2nc(N)nc(CC)n2)c1 (centres unmarked) [Product P7.369]	very good herbicidal activity	very good herbicidal activity
C#Cc1c(F)cc(C(Nc2nc(N)nc(C(F)CC)n2)C2CC2)cc1F (centres unmarked) [Product P29.352]	very good herbicidal activity	very good herbicidal activity
CC(Nc1nc(N)nc(C(C)(C)F)n1)c1cccc(C2CC2)c1 (centres unmarked) [Product P17.1603]	very good herbicidal activity	very good herbicidal activity
CC(F)C#Cc1cc(C(C)Nc2nc(N)nc(C(C)F)n2)ccc1F (centres unmarked) [Product P22.764]	very good herbicidal activity	very good herbicidal activity
C#Cc1cc(CNc2nc(N)nc(C(C)F)n2)ccc1F (centres unmarked) [Product P21.309]	very good herbicidal activity	very good herbicidal activity
CC(F)c1nc(N)nc(NC(C)c2ccc(F)c(C3CC3)c2)n1 (centres unmarked) [Product P22.916]	very good herbicidal activity	very good herbicidal activity

Compound	herbicidal activity post-emergence against harmful plants [1]	herbicidal activity against harmful plants which are typical for rice crops [2]
C#Cc1cc(CNc2nc(N)nc(C(C)(C)F)n2)ccc1F [Product P16.309]	very good herbicidal activity	very good herbicidal activity
CC#Cc1cc(C(C)Nc2nc(N)nc(CC)n2)ccc1F (centres unmarked) [Product P7.384]	very good herbicidal activity	very good herbicidal activity
CC(F)c1nc(N)nc(NCc2ccc(F)c(C3CC3)c2)n1 (centres unmarked) [Product P21.916]	very good herbicidal activity	very good herbicidal activity
CC#Cc1cccc(CNc2nc(N)nc(C(C)F)n2)c1 (centres unmarked) [Product P21.1582]	very good herbicidal activity	very good herbicidal activity
C#Cc1ccc(C(C)Nc2nc(C)nc(N)n2)cc1 (centres unmarked) [Product P2.1580]	very good herbicidal activity	very good herbicidal activity
CCCCC#Cc1c(C)cc(C(C)Nc2nc(N)nc(C(C)(C)F)n2)cc1C (centres unmarked) [Product P17.728]	very good herbicidal activity	very good herbicidal activity
CC(C)c1nc(N)nc(NC(c2ccc(C(F)=C(F)F)cc2)C2CC2)n1 (centres unmarked) [Product P14.1568]	very good herbicidal activity	very good herbicidal activity
C#Cc1c(C)cc(C(C)Nc2nc(N)nc(CC)n2)cc1C (centres unmarked) [Product P7.348]	very good herbicidal activity	very good herbicidal activity
CC#Cc1cccc(C(Nc2nc(N)nc(C(C)F)n2)C2CC2)c1 (centres unmarked) [Product P24.1582]	very good herbicidal activity	very good herbicidal activity
CCC(F)c1nc(N)nc(NC(c2cccc(C(F)=C(F)F)c2)C2CC2)n1 (centres unmarked) [Product P29.1567]	very good herbicidal activity	very good herbicidal activity
CC#Cc1cc(C(C)Nc2nc(N)nc(C(C)(C)F)n2)cc(C#CC)c1F (centres unmarked) [Product P17.450]	very good herbicidal activity	very good herbicidal activity
CC#Cc1cc(C(Nc2nc(N)nc(C(C)(C)F)n2)C2CC2)ccc1F (centres unmarked) [Product P19.384]	very good herbicidal activity	very good herbicidal activity
C#Cc1cccc(C(C)Nc2nc(C)nc(N)n2)c1 (centres unmarked) [Product P2.1579]	very good herbicidal activity	very good herbicidal activity
CC#Cc1cccc(CNc2nc(N)nc(CC)n2)c1 [Product P6.1582]	very good herbicidal activity	very good herbicidal activity
CC#Cc1cccc(C(C)Nc2nc(N)nc(C(C)F)n2)c1 (centres unmarked) [Product P22.1582]	very good herbicidal activity	very good herbicidal activity
CC(F)c1nc(N)nc(NC(C)c2ccc(C(F)=C(F)F)cc2)n1 (centres unmarked) [Product P22.1568]	very good herbicidal activity	very good herbicidal activity
CCC(F)c1nc(N)nc(NC(C)c2cccc(C(F)=C(F)F)c2)n1 (centres unmarked) [Product P27.1567]	very good herbicidal activity	very good herbicidal activity
CC#Cc1c(F)cc(CNc2nc(N)nc(C(C)F)n2)cc1F (centres unmarked) [Product P21.428]	very good herbicidal activity	very good herbicidal activity
